Patent publication US11628176B2, “Combinational drug therapies” (Opna Bio SA, priority 2020, dated 2023)
Where two headings read alike, the source gives them in different places.

Experiments:
LNCaP cells = experiment: Prostate cancer cell growth assay, single compound (CellTiter-Glo); format: cell-based; details: Homo sapiens, 120 h, 5 days incubation
Procedure: (§1) Growth assays were done in triplicate and performed as follows.
(§2) 1. On Day 1, LNCaP and 22Rv1 cells were seeded in wells of a 96-well plate at a density of 3000 cells/well in 100 μL of culture media (RPMI 1640 medium supplemented with 10% fetal bovine serum and 1% Penicillin/Streptomycin). Cells were incubated overnight at 37° C. in a humidified atmosphere with 5% CO2.
(§3) 2. On Day 2, for single compound treatment studies, each compound was serially diluted 1:3 in DMSO to create a 9-point titration. A 3 μL aliquot of each dilution was added to 747 μL culture media and 100 μL were added to each triplicate well. Wells containing 0.2% DMSO-treated cells served as uninhibited controls.
(§4) In all studies, cells were incubated at 37° C. in a humidified atmosphere with 5% CO2 for 5 days.
(§5) 3. On Day 7, cell cultures were brought to room temperature for 30 minutes and 50 μL of reconstituted CellTiter-Glo Reagent was added to each well. Plates were shaken at room temperature for approximately 15 minutes Luminescent signal was quantified on a microplate reader.
(§6) 1. For single compound treatment study, all responses were expressed as % inhibition (the percentage inhibition compared to the average response of the DMSO-treated control wells). The data were analyzed by using nonlinear regression to generate IC50 values in Prism (GraphPad, La Jolla, Calif.). 95% confident interval (CI95) of the IC50 values were also calculated in Prism.

22Rv1 cells = experiment: as above; format: cell-based; details: Homo sapiens, 120 h, 22Rv1 cell growth, 5 days incubation
Procedure: as §1, §2, §3, §4, §5, §6

[1] = n=3, read-out: IC50 (geometric mean)

For `CC(=O)O[C@H]1CC[C@@]2(C)C(=CC[C@@H]3[C@@H]2CC[C@]2(C)C(c4cccnc4)=CC[C@@H]32)C1` [Abiraterone acetate, abiraterone acetate, reference compound], the IC50 (LNCaP cells; [1]) was 3.5 µM and the IC50 (22Rv1 cells; [1]) was 42 µM.

Molecule `Cc1noc(C)c1-c1cnc2c(-c3ccc(C(=O)O)cc3)cn(C(C)(c3ccccn3)c3ccccn3)c2c1` [Compound I, 4-(1-(1,1-di(pyridin-2-yl)ethyl)-6-(3,5-dimethylisoxazol-4-yl)-1H-pyrrolo[3,2-b]pyridin-3-yl)benzoic acid] has an IC50 (LNCaP cells; [1]) of 0.043 µM, an IC50 (LNCaP cells; read-out: IC50) of 0.043 µM and an IC50 (22Rv1 cells; [1]) of 0.034 µM. The IC50 (22Rv1 cells; read-out: IC50) was 0.034 µM.
